Assay results: ChEMBL document CHEMBL1154657, “Heterobiaryl purine derivatives as potent antiproliferative agents: inhibitors of cyclin dependent kinases. Part II” (Bioorg Med Chem Lett, 2009)

What was measured:
[1] = Growth inhibition of human HeLaS3 cells; format: functional; details: HeLa S3
[2] = biological target: Cyclin-dependent kinase 2/cyclin E (Homo sapiens, UniProt P24941); experiment: Inhibition of Cdk2/cyclinE; format: protein-complex assay
[3] = biological target: Cyclin-dependent kinase 2/cyclin A (Homo sapiens, UniProt P24941); experiment: Inhibition of recombinant Cdk2/cyclinA; format: protein-complex assay

SMILES | GI50 [1] | IC50 [2] | IC50 [3]
CC(C)n1cnc2c(NCc3ccc(-c4ccc(Cl)s4)cc3)nc(N[C@H]3CC[C@H](N)CC3)nc21 | 380 nM | 300 nM | 400 nM
CC(C)n1cnc2c(NCc3ccc(-c4cccnc4)cc3)nc(N[C@H]3CC[C@H](N)CC3)nc21 | 140 nM | 70 nM | 300 nM
CC(C)n1cnc2c(NCc3ccc(-c4ccccc4F)s3)nc(N[C@H]3CC[C@H](N)CC3)nc21 | 300 nM | 80 nM | 400 nM
CC(C)n1cnc2c(NCc3ccc(-c4ccsc4)cc3)nc(N[C@H]3CC[C@H](N)CC3)nc21 | 40 nM | 200 nM | 400 nM
COc1cccc(-c2ccc(CNc3nc(N[C@H]4CC[C@H](N)CC4)nc4c3ncn4C(C)C)s2)c1 | 160 nM | 100 nM | 300 nM
CC(C)n1cnc2c(NCc3csc(-c4ccccc4)n3)nc(N[C@H]3CC[C@H](N)CC3)nc21 | 4000 nM | 400 nM | 700 nM
CC(C)n1cnc2c(NCc3ccc(-c4ccccc4)cc3)nc(N[C@H]3CC[C@H](N)CC3)nc21 |  | 100 nM | 400 nM
CC(C)n1cnc2c(NCc3ccc(-n4cccn4)cc3)nc(N[C@H]3CC[C@H](N)CC3)nc21 | 170 nM | 950 nM | 140 nM
CC(C)n1cnc2c(NCc3ccc(-n4cccc4)cc3)nc(N[C@H]3CC[C@H](N)CC3)nc21 | 20 nM | 200 nM | 200 nM
CC(C)n1cnc2c(NCc3ccc(-c4ccoc4)s3)nc(N[C@H]3CC[C@H](N)CC3)nc21 | 2000 nM | 200 nM | 600 nM
CC(C)n1cnc2c(NCc3ccc(-c4ccccc4)nc3)nc(N[C@H]3CC[C@H](N)CC3)nc21 | 71 nM | 40 nM | 100 nM
Cc1cccc(-c2ccc(CNc3nc(N[C@H]4CC[C@H](N)CC4)nc4c3ncn4C(C)C)s2)c1 | 200 nM | 200 nM | 700 nM
Cc1csc(-c2ccc(CNc3nc(N[C@H]4CC[C@H](N)CC4)nc4c3ncn4C(C)C)s2)n1 | 40 nM |  | 100 nM
Cc1csc(-c2ccc(CNc3nc(N[C@H]4CC[C@H](N)CC4)nc4c3ncn4C(C)C)cc2)c1 | 400 nM | 200 nM | 500 nM
CC(C)n1cnc2c(NCc3ccc(-c4ccc(F)cc4)s3)nc(N[C@H]3CC[C@H](N)CC3)nc21 | 390 nM | 300 nM | 500 nM
CC(C)n1cnc2c(NCc3ccc(-c4cccc(F)c4)s3)nc(N[C@H]3CC[C@H](N)CC3)nc21 | 190 nM | 90 nM | 250 nM
CC(C)n1cnc2c(NCc3ccc(-c4ccccn4)s3)nc(N[C@H]3CC[C@H](N)CC3)nc21 | 270 nM | 44 nM | 1500 nM
CC(C)n1cnc2c(NCc3csc(-c4ccccc4)c3)nc(N[C@H]3CC[C@H](N)CC3)nc21 | 370 nM | 85 nM | 250 nM

SMILES | GI50 [1] | IC50 [2] | IC50 [3]
CC(C)n1cnc2c(NCc3ccc(-c4cccs4)nc3)nc(N[C@H]3CC[C@H](N)CC3)nc21 | 98 nM |  | 900 nM
CC(C)n1cnc2c(NCc3ccc(-c4ccccn4)nc3)nc(N[C@H]3CC[C@H](N)CC3)nc21 | 310 nM | 30 nM | 90 nM
CC(C)n1cnc2c(NCc3ccc(-c4ccsc4)nc3)nc(N[C@H]3CC[C@H](N)CC3)nc21 | 27 nM | < 30 nM | 100 nM
CC(C)n1cnc2c(NCc3ccc(-c4ccccc4)cn3)nc(N[C@H]3CC[C@H](N)CC3)nc21 | 500 nM | 400 nM | 500 nM
CC(C)n1cnc2c(NCc3ccc(-c4ccccn4)cc3)nc(N[C@H]3CC[C@H](N)CC3)nc21 | 44 nM | 100 nM | 200 nM
CC(C)n1cnc2c(NCc3cnc(-c4ccccc4)s3)nc(N[C@H]3CC[C@H](N)CC3)nc21 | 200 nM | < 50 nM | < 50 nM
CC(C)n1cnc2c(NCc3ccc(-c4ccco4)cc3)nc(N[C@H]3CC[C@H](N)CC3)nc21 | 30 nM | 90 nM | 150 nM
CC(C)n1cnc2c(NCc3ccc(-n4cccn4)nc3)nc(N[C@H]3CC[C@H](N)CC3)nc21 | 20 nM | 50 nM | 70 nM
CC[C@H](CO)Nc1nc(NCc2ccccc2)c2ncn(C(C)C)c2n1 [SELICICLIB] | 20000 nM |  | 
CC(C)n1cnc2c(NCc3ccc(-c4cccs4)cc3)nc(N[C@H]3CC[C@H](N)CC3)nc21 | 48 nM | 90 nM | 100 nM
CC(C)n1cnc2c(NCc3ccc(-c4cccs4)s3)nc(N[C@H]3CC[C@H](N)CC3)nc21 | 300 nM | 55 nM | 140 nM
CC(C)n1cnc2c(NCc3coc(-c4ccccc4)c3)nc(N[C@H]3CC[C@H](N)CC3)nc21 | 330 nM | 150 nM | 300 nM
CC(C)n1cnc2c(NCc3ccc(-c4ccco4)s3)nc(N[C@H]3CC[C@H](N)CC3)nc21 | 300 nM | 100 nM | 200 nM
CC(C)n1cnc2c(NCc3ccc(-c4ccsc4)s3)nc(N[C@H]3CC[C@H](N)CC3)nc21 | 150 nM | 200 nM | 300 nM
Cc1ccc(-c2ccc(CNc3nc(N[C@H]4CC[C@H](N)CC4)nc4c3ncn4C(C)C)cc2)s1 | 400 nM | 200 nM | 600 nM
CC(C)n1cnc2c(NCc3ccc(-c4cccnc4)s3)nc(N[C@H]3CC[C@H](N)CC3)nc21 | 200 nM | 100 nM | 200 nM
CC(C)n1cnc2c(NCc3ccc(-c4cccc(F)c4)nc3)nc(N[C@H]3CC[C@H](N)CC3)nc21 | 16 nM | 40 nM | 80 nM
